The values below come from PubChem BioAssay (NCI).

Test systems include BT-549 breast; MCF7 breast; MDA-MB-435; MDA-N; NCI/ADR-RES ovarian; PC-3 prostate; T-47D breast; DMS 114 small cell lung; DMS 273 small cell lung; HOP-18 NSCLC; M19-MEL melanoma; XF 498 CNS; SR leukemia.
Assay in all cases: NCI tumour cell line growth inhibition, 48 h

The structures appear in SMILES notation.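 48-hour exposure; five concentrations; linearly interpolated endpoints. GI50: concentration for 50% inhibition of growth. TGI: total growth inhibition.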

On to `C/C(=N/NC(N)=S)c1ccc[nH]1`, for which the TGI with BT-549 breast, in the assay with MCF7 breast, in the assay on MDA-MB-435, in the assay with MDA-N, with NCI/ADR-RES ovarian and in the assay with PC-3 prostate was > 100 µM in each case. Besides, in the assay with T-47D breast, the TGI is > 100 µM.

Turning to `C[C@@H]1Nc2cc(NC(=O)OCCF)nc(N)c2N=C1c1ccccc1`, the TGI in the assay on BT-549 breast is > 100 µM; in the assay with MCF7 breast, > 100 µM; in the assay on MDA-MB-435, < 0.0001 µM; with MDA-N, < 0.0001 µM; in the assay with NCI/ADR-RES ovarian it was < 0.0001 µM; with PC-3 prostate it was > 100 µM. Besides, in the assay on T-47D breast, the TGI was > 100 µM. In the assay on MCF7 breast, the GI50 is < 0.0001 µM.

In the case of `CC(=O)Nc1ccc(/C=C/c2ccc(NC(=O)Nc3ccc(/C=C/c4ccc(NC(C)=O)cc4S(=O)(=O)O)c(S(=O)(=O)O)c3)cc2S(=O)(=O)O)c(S(=O)(=O)O)c1`, the TGI with DMS 114 small cell lung, in the assay with DMS 273 small cell lung, in the assay on HOP-18 NSCLC, with M19-MEL melanoma, with MCF7 breast and in the assay on NCI/ADR-RES ovarian was > 100 µM throughout. In addition, the TGI in the assay on XF 498 CNS was > 100 µM.

As to `COCc1nc2c(OC)c(-c3nc4nc(N5CCN(C)CC5)ccc4[nH]3)cc(OC)c2n1C`, the TGI in the assay with BT-549 breast is > 100 µM; in the assay on MDA-MB-435, 48.4 µM; with MDA-N it was > 100 µM; in the assay on NCI/ADR-RES ovarian, > 100 µM; in the assay with PC-3 prostate, 63.4 µM; in the assay on T-47D breast, > 100 µM.

For the compound `CCOP(=O)(OCC)C(c1ccc(F)cc1)N(C(=O)NC(F)(F)F)c1cccc(C(F)(F)F)c1` (configuration not stated), the TGI in the assay on BT-549 breast, with MCF7 breast, in the assay on MDA-MB-435, in the assay with MDA-N, with NCI/ADR-RES ovarian and in the assay on PC-3 prostate was > 100 µM in each case. In addition, the TGI in the assay on SR leukemia and in the assay on T-47D breast was > 100 µM each time.

Take `CCC(C)NC1=NCC(C)S1` (configuration not stated): the TGI in the assay with BT-549 breast, in the assay on MCF7 breast, in the assay on MDA-MB-435, with MDA-N, in the assay on PC-3 prostate and in the assay on SR leukemia was > 100 µM throughout. For the same compound, the TGI in the assay on T-47D breast was > 100 µM.

As for `CN=C(SC)N(C)c1nc(=[N+](C)C)ss1`, the TGI in the assay on DMS 273 small cell lung, in the assay on SR leukemia and in the assay on XF 498 CNS was > 100 µM each time.

`COc1ccccc1CNCCCN1C(=O)c2ccc3c4c(ccc(c24)C1=O)C(=O)N(CCCNCCNCCCN)C3=O`: the GI50 with BT-549 breast was 2.58 µM; with MCF7 breast, 0.422 µM; in the assay with MDA-MB-435 it was 2.07 µM; with NCI/ADR-RES ovarian, 23.1 µM; with PC-3 prostate, 5.91 µM; in the assay with T-47D breast, 1.51 µM. Moreover, the TGI with BT-549 breast is 6.43 µM; with MCF7 breast, 2.22 µM; in the assay with MDA-MB-435 it was 4.94 µM; in the assay with NCI/ADR-RES ovarian it was > 100 µM; in the assay on PC-3 prostate, 80.2 µM; in the assay on T-47D breast, 4.99 µM.

Turning to `CCOC(=O)Cn1c(=O)ccn(COCCO)c1=O`, the TGI in the assay with BT-549 breast, with MCF7 breast, in the assay with MDA-MB-435, with MDA-N, in the assay with NCI/ADR-RES ovarian and in the assay on PC-3 prostate was > 100 µM in each case. Moreover, the TGI in the assay with T-47D breast was > 100 µM.

On to `CC1CC2=C(S(=O)(=O)c3ccccc3)CC(S(=O)(=O)c3ccccc3)(S(=O)(=O)c3ccccc3)CC21` (configuration not stated), for which the TGI in the assay with DMS 114 small cell lung, in the assay with DMS 273 small cell lung, in the assay with HOP-18 NSCLC, in the assay on SR leukemia and in the assay with XF 498 CNS was > 100 µM each time.

Turning to `COc1cc2oc(-c3ccc(O)cc3)c(OC)c(=O)c2c(O)c1OC`, the GI50 with BT-549 breast is 27.7 µM; in the assay on MCF7 breast, 51.4 µM; in the assay with MDA-N it was 25.5 µM; in the assay with NCI/ADR-RES ovarian it was 30.9 µM; in the assay on PC-3 prostate, 40.6 µM. Also, the TGI in the assay on BT-549 breast, with MCF7 breast, in the assay with MDA-N, in the assay on NCI/ADR-RES ovarian and in the assay on PC-3 prostate was > 100 µM each time.

In the case of `COc1ccc(S(=O)(=O)c2ccccc2[N+](=O)[O-])cc1`, the TGI in the assay on DMS 114 small cell lung, with DMS 273 small cell lung, in the assay with HOP-18 NSCLC, in the assay with M19-MEL melanoma and in the assay with SR leukemia was > 100 µM in each case.

For the compound `CCOC(=O)c1ccc(N[C@@H]2c3cc4c(cc3C(c3cc(OC)c(O)c(OC)c3)[C@H]3C(=O)OCC32)OCO4)cc1O` (some centres not stated), the TGI with DMS 114 small cell lung was 2.03 µM; in the assay with DMS 273 small cell lung, 1.77 µM; in the assay with HOP-18 NSCLC it was > 54.4 µM; in the assay with M19-MEL melanoma, > 55.1 µM; with MCF7 breast, > 79.3 µM; in the assay with NCI/ADR-RES ovarian it was 99.3 µM. This compound also displayed a TGI with XF 498 CNS of 16.9 µM.

For the compound `COCCCNc1nc(N)c(C#N)c(C#N)c1C#N`, the TGI in the assay on MCF7 breast, with MDA-MB-435, with MDA-N, with NCI/ADR-RES ovarian, in the assay on PC-3 prostate and in the assay on SR leukemia was > 10 µM each time. In the assay on T-47D breast, the TGI is > 10 µM.

Regarding `Nc1nc([O-])c2c(n1)[n+](C1OC(CO)C(O)C1O)cn2CCO` (configuration not stated), the TGI in the assay with DMS 114 small cell lung, in the assay on DMS 273 small cell lung, in the assay on HOP-18 NSCLC, with M19-MEL melanoma, in the assay on SR leukemia and in the assay with XF 498 CNS was > 100 µM throughout.

In the case of `Clc1ccc(C[P+](c2ccccc2)(c2ccccc2)c2ccccc2)c(Cl)c1`, the TGI in the assay on DMS 114 small cell lung came out at 6 µM; in the assay with DMS 273 small cell lung, 10.1 µM; in the assay on M19-MEL melanoma it was 11.5 µM; in the assay on SR leukemia, 8.13 µM; with XF 498 CNS it was 4.4 µM.

As to `CCOC(=O)CNC(=O)N(CC)C12CC3CC(CC(C3)C1)C2`, the TGI was determined as 274 µM with DMS 114 small cell lung; 315 µM in the assay on DMS 273 small cell lung; 536 µM with HOP-18 NSCLC; 380 µM in the assay with M19-MEL melanoma; 444 µM in the assay with MCF7 breast; 402 µM in the assay on NCI/ADR-RES ovarian. Moreover, in the assay with XF 498 CNS, the TGI is 342 µM.

Take `C[Si](C)(C)OC1CC(=O)OC1n1cc(F)c(=O)[nH]c1=O` (configuration not stated): the TGI in the assay on DMS 114 small cell lung is > 100 µM; in the assay with DMS 273 small cell lung, > 100 µM; with HOP-18 NSCLC, > 100 µM; in the assay on M19-MEL melanoma, > 100 µM; in the assay with SR leukemia it was 9.38 µM; in the assay on XF 498 CNS, > 100 µM.

Take `CN(C)CC1CCCC(CN(C)C)C1OC(=O)c1ccccc1` (configuration not stated): the TGI in the assay on DMS 273 small cell lung, with HOP-18 NSCLC, in the assay with M19-MEL melanoma and in the assay on SR leukemia was > 100 µM throughout.
